From ChEMBL document CHEMBL1201862, “PubChem BioAssay data set” (2004)
Where “and” joins values, the source holds several entries; their conditions need not be identical. Identical values can stand only once.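 Briefly, cells in 96-well plates were exposed to five compound concentrations for 48 h, and endpoints were estimated by linear interpolation. GI50 marks 50% less growth.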 Calls of active or inactive are those of the source. Rule as the data show it: active = GI50 up to about 1.1 µM and inactive = higher.

Columns and labels:
Assay in all cases: NCI tumour cell line growth inhibition, 48 h
DLD-1 = tested on: DLD-1
DMS-114 = tested on: DMS-114
DMS-273 = tested on: DMS-273
HOP-18 = tested on: HOP-18
KM-20L2 = tested on: KM-20L2
SNB-78 = tested on: SNB-78
XF498 = tested on: XF498
LXFL 529 = tested on: LXFL 529
RXF 631 = tested on: RXF 631

| Compound | GI50 (DLD-1) | GI50 (DMS-114) | GI50 (DMS-273) | GI50 (HOP-18) | GI50 (KM-20L2) | GI50 (SNB-78) | GI50 (XF498) | GI50 (LXFL 529) | GI50 (RXF 631) |
| --- | --- | --- | --- | --- | --- | --- | --- | --- | --- |
| Cc1c2cnccc2c(C)c2c1c1ccccc1n2CCOC(=O)c1ccccc1 | 7.69 µM (inactive) | 9.51 µM (inactive) | 4.86 µM (inactive) | 20.7 µM (inactive) | 6.44 µM (inactive) | 12.2 µM (inactive) | 3.27 µM (inactive) | – | – |
| Cn1cnc([N+](=O)[O-])c1Sc1nnc(-c2cccnc2)n1C | 18.8 µM (inactive) | 18.9 µM (inactive) | 80.2 µM (inactive) | 14.6 µM (inactive) | 33.9 µM (inactive) | 21.4 µM (inactive) | 20.4 µM (inactive) | 12 µM (inactive) | – |
| C=C=C[P+](c1ccccc1)(c1ccccc1)c1ccccc1 | 5.61 µM (inactive) | 8.69 µM (inactive) | 27.6 µM (inactive) | 46.7 µM (inactive) | – | 16.9 µM (inactive) | – | 3.91 µM (inactive) | – |
| CN(C)[C@@H]1C(O)=C(C(N)=O)C(=O)[C@@]2(O)C(O)=C3C(=O)c4c(O)cccc4C[C@H]3C[C@@H]12 | 2.66 µM (inactive) | 2.52 µM (inactive) | 2.17 µM (inactive) | 1.79 µM (inactive) | 2.19 µM (inactive) | – | – | 1.92 µM (inactive) | – |
| Cc1cccc(C(C)C)c1N1C(=O)C(=O)C(c2nc3ccccc3o2)C(=O)C1=O | 39.4 µM (inactive) | 24.7 µM (inactive) | 93.8 µM (inactive) | > 100 µM (inactive) | 35.4 µM (inactive) | > 100 µM (inactive) | 21.1 µM (inactive) | 61.1 µM (inactive) | 27.2 µM (inactive) |
| Cc1nc2ccncc2[nH]1 | > 100 µM (inactive) | > 100 µM (inactive) | > 100 µM (inactive) | – | > 100 µM (inactive) | – | 58.6 µM (inactive) | > 100 µM (inactive) | > 100 µM (inactive) |
| CSc1nc2c(nc(C)c(=O)n2C2OCC(OC(C)=O)C(OC(C)=O)C2OC(C)=O)c(=O)[nH]1 (centres undefined) | > 100 µM (inactive) | > 100 µM (inactive) | > 100 µM (inactive) | – | > 100 µM (inactive) | – | > 100 µM (inactive) | > 100 µM (inactive) | – |
| CCN(CC)c1ccc2cc3ccc(N(CC)CC)cc3[o+]c2c1 | 1.39 µM (inactive) | 0.687 µM (active) | 1.12 µM (active) | – | 1.82 µM (inactive) | 2.43 µM (inactive) | 1.23 µM (inactive) | 0.457 µM (active) | – |
| NC(CCCC(N)P(=O)(O)O)P(=O)(O)O (centres undefined) | > 100 µM (inactive) | > 100 µM (inactive) | > 100 µM (inactive) | > 100 µM (inactive) | – | > 100 µM (inactive) | – | > 100 µM (inactive) | > 100 µM (inactive) |
| COc1ccccc1/C=C1\C(=O)N(C(=O)Cc2ccccc2)N=C1C | > 100 µM (inactive) | > 100 µM (inactive) | > 100 µM (inactive) | 13.1 µM (inactive) | – | > 100 µM (inactive) | > 100 µM (inactive) | – | – |
| CC1C[C@@H]2C(=O)NC(=O)[C@@H]2c2c1c1ccccc1n2C (some centres undefined) | > 100 µM (inactive) | > 100 µM (inactive) | > 100 µM (inactive) | – | > 100 µM (inactive) | > 100 µM (inactive) | > 100 µM (inactive) | > 100 µM (inactive) | > 100 µM (inactive) |
| Cc1nc(C(N)=S)sc1C(=O)CC(=O)C(=O)Nc1ccccc1[N+](=O)[O-] | > 100 µM (inactive) | > 100 µM (inactive) | > 100 µM (inactive) | > 100 µM (inactive) | > 100 µM (inactive) | > 100 µM (inactive) | – | > 100 µM (inactive) | > 100 µM (inactive) |
| COc1nc(=O)n(COC(CO)CN2C(=O)c3ccccc3C2=O)cc1Cc1cccc(OCc2ccccc2)c1 (centres undefined) | 28.3 µM (inactive) | 22 µM (inactive) | 19.4 µM (inactive) | 27.5 µM (inactive) | 26.2 µM (inactive) | 31.6 µM (inactive) | – | 30.1 µM (inactive) | – |
| COc1ccc(C2=NN(c3ccccc3)C[N+](c3ccc(OC)cc3)=N2)cc1 | 28.8 µM (inactive) | 24.2 µM (inactive) | 24.5 µM (inactive) | – | 29.6 µM (inactive) | 28.2 µM (inactive) | 18.8 µM (inactive) | 17.2 µM (inactive) | – |
| O=C(Cc1ccccc1)NN1C(=O)C(Cl)C1c1ccc([N+](=O)[O-])cc1 (centres undefined) | > 100 µM (inactive) | 28.6 µM (inactive) | > 100 µM (inactive) | > 100 µM (inactive) | > 100 µM (inactive) | 45.9 µM (inactive) | > 100 µM (inactive) | 95.9 µM (inactive) | – |
| COc1cccc(Cc2c3cc(OC)ccc3cc[n+]2C)c1 | > 100 µM (inactive) | – | – | – | 65.5 µM (inactive) | > 100 µM (inactive) | 12.4 µM (inactive) | 36.4 µM (inactive) | – |

| Compound | GI50 (DLD-1) | GI50 (DMS-114) | GI50 (DMS-273) | GI50 (HOP-18) | GI50 (KM-20L2) | GI50 (SNB-78) | GI50 (XF498) | GI50 (LXFL 529) | GI50 (RXF 631) |
| --- | --- | --- | --- | --- | --- | --- | --- | --- | --- |
| C/C=C(\NC(=O)C(CCCCN)NC(=O)C(C)NC(=O)C1CSC(C)C(NC(=O)C2CSCC(NC(=O)C(C)NC(=O)C(N)C(C)CC)C(=O)NC(CCCCN)C(=O)NC(Cc3ccccc3)C(=O)NC(CC(C)C)C(=O)N2)C(=O)N2CCCC2C(=O)NCC(=O)N1)C(=O)NCC(=O)NC1CSCC2NC(=O)C(Cc3ccc(O)cc3)NC(=O)C(CSC=CNC2=O)NC(=O)C(CC(N)=O)NC(=O)C(Cc2ccccc2)NC1=O (centres undefined) | > 100 µM (inactive) | > 100 µM (inactive) | 57.1 µM (inactive) | – | – | > 100 µM (inactive) | > 100 µM (inactive) | > 100 µM (inactive) | – |
| Nc1nnc(N)n1N | > 100 µM (inactive) | > 100 µM (inactive) | > 100 µM (inactive) | – | – | > 100 µM (inactive) | 28.8 µM (inactive) | > 100 µM (inactive) | > 100 µM (inactive) |
| COc1ccc(/C(=N/NC(N)=O)C2(O)C(=O)Nc3ccc([N+](=O)[O-])cc32)cc1 (centres undefined) | 21.3 µM (inactive) | 19.7 µM (inactive) | 18.3 µM (inactive) | – | 22.3 µM (inactive) | 17.8 µM (inactive) | 16.5 µM (inactive) | 18.3 µM (inactive) | – |
| COC(=O)C(Cc1nc2ccc(Cl)cc2nc1O)/C(=N/NC(N)=O)C(=O)Nc1ccc(Cl)cc1 (centres undefined) | – | > 100 µM (inactive) | > 100 µM (inactive) | > 100 µM (inactive) | > 100 µM (inactive) | > 100 µM (inactive) | > 100 µM (inactive) | > 100 µM (inactive) | > 100 µM (inactive) |
| CN1c2ccccc2N(C)C2C1N(C)c1ccccc1N2C (centres undefined) | 14.1 µM (inactive) | 5.71 µM (inactive) | 8.75 µM (inactive) | – | 15.7 µM (inactive) | 18.9 µM (inactive) | 7 µM (inactive) | 12.6 µM (inactive) | 37.1 µM (inactive) |
| Cc1c(C(=O)CC(=O)C(=O)Nc2ccccc2C(F)(F)F)[n+]([O-])c2ccccc2[n+]1[O-] | – | 11.5 µM (inactive) | 25.8 µM (inactive) | 2.2 µM (inactive) | 33.7 µM (inactive) | 47.2 µM (inactive) | 9.44 µM (inactive) | 20.8 µM (inactive) | – |
| O=c1nc(NC(c2ccccc2)(c2ccccc2)c2ccccc2)ccn1CCO | 39.6 µM (inactive) | 52.7 µM (inactive) | – | > 100 µM (inactive) | > 100 µM (inactive) | > 100 µM (inactive) | – | 63.4 µM (inactive) | – |
| COC(=O)c1ccc(CS(=O)(=O)c2ccccc2)cc1 | 91.8 µM (inactive) | 64.3 µM (inactive) | 45.4 µM (inactive) | > 100 µM (inactive) | 61.5 µM (inactive) | > 100 µM (inactive) | > 100 µM (inactive) | > 100 µM (inactive) | > 100 µM (inactive) |
| COC(=O)CCC(NC(=S)N/N=C/c1ccccn1)C(=O)OC (centres undefined) | > 100 µM (inactive) | > 100 µM (inactive) | – | > 100 µM (inactive) | > 100 µM (inactive) | > 100 µM (inactive) | > 100 µM (inactive) | > 100 µM (inactive) | > 100 µM (inactive) |
| CCOC(=O)Cn1c(=O)n(C)c(=O)c2[nH]cnc21 | > 100 µM (inactive) | > 100 µM (inactive) | > 100 µM (inactive) | – | – | > 100 µM (inactive) | > 100 µM (inactive) | > 100 µM (inactive) | – |
| N#Cc1cccc(N2C(=O)c3ccc(C(=O)c4ccc5c(c4)C(=O)N(c4cccc(C#N)c4)C5=O)cc3C2=O)c1 | > 100 µM (inactive) | > 100 µM (inactive) | > 100 µM (inactive) | > 100 µM (inactive) | > 100 µM (inactive) | > 100 µM (inactive) | > 100 µM (inactive) | > 100 µM (inactive) | – |
| CN1N=C2c3ccccc3CC[C@H]2C1c1ccccc1 (some centres undefined) | 41.8 µM (inactive) | 22.5 µM (inactive) | 26.6 µM (inactive) | > 100 µM (inactive) | 36.9 µM (inactive) | 83.9 µM (inactive) | – | 15.4 µM (inactive) | – |
| COc1cc2c(cc1O)[C@H](C)C(c1ccc(Cl)cc1)O2 (some centres undefined) | 24.8 µM (inactive) | 13.9 µM (inactive) | 16.5 µM (inactive) | 36.2 µM (inactive) | 23.1 µM (inactive) | 21.3 µM (inactive) | 15.5 µM (inactive) | 17.2 µM (inactive) | 26 µM (inactive) |
| Brc1ccc(C[N+]23CN4CN(CN(C4)C2)C3)cc1 | > 10 µM (inactive) | 23.6 µM (inactive) | 22.5 µM (inactive) | – | 31.1 µM (inactive) | 83.2 µM (inactive) | – | – | – |
| O=c1c(Cl)c(Cl)cnn1-c1ccccc1 | 1.44 µM (inactive) and 2.35 µM (inactive) | 2.33 µM (inactive) and 1.56 µM (inactive) | – | 8.53 µM (inactive) and 5.19 µM (inactive) | – | 7.33 µM (inactive) | 2.46 µM (inactive) | 1.67 µM (inactive) and 1.71 µM (inactive) | – |
